“And” between values parts separate entries of the source, which are not always exact repeats. Equal entries are not always repeated. Where two headings read alike, the source gives them in different places.
Tests used:
[1] = molecular target: T1, PilF159-482 (Thermus thermophilus, UniProt Q5SLC9); test: ITC binding to PilF159-482; conditions: 20 °C; for Kd: pH 7.5, two-site model
T1 sequence (Q5SLC9 159-482): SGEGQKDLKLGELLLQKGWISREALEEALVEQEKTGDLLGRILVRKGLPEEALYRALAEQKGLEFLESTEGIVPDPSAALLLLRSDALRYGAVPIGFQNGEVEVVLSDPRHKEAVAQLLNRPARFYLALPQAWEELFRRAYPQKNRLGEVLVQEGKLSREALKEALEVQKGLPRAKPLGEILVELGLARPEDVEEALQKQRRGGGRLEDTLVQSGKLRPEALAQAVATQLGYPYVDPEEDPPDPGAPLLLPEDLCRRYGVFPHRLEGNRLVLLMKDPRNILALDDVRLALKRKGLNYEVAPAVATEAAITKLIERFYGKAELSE
Procedure: (§1) To assess the ligand-binding capabilities of the various PilF constructs, triplicates of ITC measurements were recorded for each construct. The measurements were carried out using a MicroCal ITC200 (Malvern Panalytical). All ITC experiments were conducted at 20 °C with 50 mM Tris-HCl pH 7.5, 200 mM sodium chloride, 1 mM β-mercaptoethanol as the sample buffer. All protein samples were extensively dialyzed against the sample buffer and the buffer used for dialysis was used to dilute protein and c-di-GMP samples in preparation for the ITC measurements. Each measurement was conducted using the following protocol. In total, 39.8 μl c-di-GMP were titrated to 270 μl protein in 20 separate injections in 180 s intervals with a stirring speed of 750 rpm. After an initial delay of 120 s, the first injection of 0.2 μl c-di-GMP with a duration of 0.4 s was followed by 19 injections of 2 μl with a duration of 4 s. During the measurement, the feedback mode was set to high and the reference power to 11 μcal s^−1. To optimize precision of the measurements, protein and c-di-GMP concentrations were adjusted to the binding capabilities of the respective constructs and ranged from 5 to 200 μM for protein and 50 to 2000 μM for c-di-GMP. All thermograms were processed using Origin 7.0 (OriginLab) using a one-site– or two-site–binding model dependent on the number of expected binding events.

[2] = molecular target: T2, PilF1-302 (GSPII-A and GSPII-B) (Thermus thermophilus, UniProt Q5SLC9); test: ITC binding to PilF1-302; conditions: 20 °C
T2 sequence (Q5SLC9 1-302): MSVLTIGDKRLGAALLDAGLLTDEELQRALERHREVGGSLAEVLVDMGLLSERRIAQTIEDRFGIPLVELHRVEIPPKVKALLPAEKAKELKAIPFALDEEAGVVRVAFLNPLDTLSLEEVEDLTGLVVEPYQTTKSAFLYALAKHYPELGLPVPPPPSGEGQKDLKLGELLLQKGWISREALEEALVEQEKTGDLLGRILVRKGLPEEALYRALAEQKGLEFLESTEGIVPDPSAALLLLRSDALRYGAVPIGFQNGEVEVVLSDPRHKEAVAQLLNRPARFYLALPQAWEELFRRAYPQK
Procedure: as §1

[3] = molecular target: T3, PilF159-302 K167R (Thermus thermophilus, UniProt Q5SLC9, K167R); test: ITC binding to PilF159-302 K167R; conditions: 20 °C
T3 sequence (Q5SLC9 159-302 K167R): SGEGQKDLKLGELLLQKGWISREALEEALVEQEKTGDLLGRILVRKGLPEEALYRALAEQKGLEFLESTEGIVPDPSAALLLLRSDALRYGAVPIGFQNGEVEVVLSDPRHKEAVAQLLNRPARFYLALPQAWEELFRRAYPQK
Procedure: as §1

[4] = molecular target: T4, PilF159-302 K167L (Thermus thermophilus, UniProt Q5SLC9, K167L); test: ITC binding to PilF159-302 K167L; conditions: 20 °C
T4 sequence (Q5SLC9 159-302 K167L): T3 sequence (Q5SLC9 159-302 K167R)
Procedure: as §1

[5] = molecular target: T5, PilF159-302 D266A (Thermus thermophilus, UniProt Q5SLC9, D266A); test: ITC binding to PilF159-302 D266A; conditions: 20 °C
T5 sequence (Q5SLC9 159-302 D266A): T3 sequence (Q5SLC9 159-302 K167R)
Procedure: as §1

[6] = molecular target: T6, PilF159-302 Q190E (Thermus thermophilus, UniProt Q5SLC9, Q190E); test: ITC binding to PilF159-302 Q190E; conditions: 20 °C
T6 sequence (Q5SLC9 159-302 Q190E): T3 sequence (Q5SLC9 159-302 K167R)
Procedure: as §1

[7] = molecular target: T7, PilF159-302 L196R (Thermus thermophilus, UniProt Q5SLC9, L196R); test: ITC binding to PilF159-302 L196R; conditions: 20 °C
T7 sequence (Q5SLC9 159-302 L196R): T3 sequence (Q5SLC9 159-302 K167R)
Procedure: as §1

[8] = tested on: PilF GSPII-A domain; test: ITC comparison of domain truncation constructs; format: binding, Thermus thermophilus; conditions: inferred from ITC of PilF1-302 vs PilF159-302 and PilF1-482
Procedure: as §1

[9] = molecular target: MshEN (N-terminal domain of ATPase MshE); design: method as in PMID 27578558; conditions: full length MshEN; cited from earlier work
[10] = molecular target: MshEN lacking the entire C-terminal subdomain; design: method as in PMID 27578558; conditions: entire C-terminal subdomain deleted; read-out: KD (ligand affinity); cited from earlier work
[11] = molecular target: PilB2; design: method as in PMID 27578558, PMID 31868878; conditions: cited from earlier work

Question: What does the source list for Nc1nc2c(ncn2[C@@H]2O[C@@H]3COP(=O)(O)O[C@H]4[C@@H](O)[C@H](n5cnc6c(=O)[nH]c(N)nc65)O[C@@H]4COP(=O)(O)O[C@H]3[C@H]2O)c(=O)[nH]1 [c-di-GMP, cyclic dimeric guanosine monophosphate]?
Answer: N, site 1 ([1]; Table S1 site 1): 1 ± 0.1; ΔH, site 1 ([1]; Table S1 site 1): -8.689 ± 0.959 kcal/mol; ΔS, site 1 ([1]; Table S1 site 1): 0.95 ± 3.5 cal/mol/deg; N, site 2 ([1]; Table S1 site 2): 0.7 ± 0.1; ΔH, site 2 ([1]; Table S1 site 2): -11.766 ± 1.182 kcal/mol; ΔS, site 2 ([1]; Table S1 site 2): 2.1 ± 4.7 cal/mol/deg; Kd ([1]; read-out: KD, site 1 (low affinity)): 208 ± 27 nM; Kd ([1]; read-out: KD, site 2 (high affinity)): 1 ± 0.3 nM; N [2]: 0.94 ± 0.13; ΔH [2]: -14.263 ± 2.001 kcal/mol; ΔS [2]: -11.4 ± 6.4 cal/mol/deg; Kd ([2]; pH 7.5): 7 ± 2 nM; N [3]: 0.79 ± 0.03; ΔH [3]: -10.42 ± 0.552 kcal/mol; ΔS [3]: -4.4 ± 1.9 cal/mol/deg; Kd ([3]; pH 7.5): 150 ± 7 nM; N [4]: 0.76 ± 0.10; ΔH [4]: -10.241 ± 0.494 kcal/mol; ΔS [4]: 5.4 ± 1.4 cal/mol/deg; Kd ([4]; pH 7.5): 2 ± 0.3 nM; N [5]: 0.95 ± 0.05; ΔH [5]: -9.995 ± 0.161 kcal/mol; ΔS [5]: 0.6 ± 0.4 cal/mol/deg; Kd ([5]; pH 7.5): 27 ± 2 nM; N [6]: 1.11 ± 0.03; ΔH [6]: -3.389 ± 0.156 kcal/mol; ΔS [6]: 15.4 ± 0.4 cal/mol/deg; Kd ([6]; pH 7.5): 950 ± 7 nM; N [7]: 1.23 ± 0.03; ΔH [7]: -8.148 ± 0.209 kcal/mol; ΔS [7]: 7.1 ± 0.8 cal/mol/deg; Kd ([7]; pH 7.5): 23 ± 2 nM; ability to bind c-di-GMP [8]: lacking the ability to bind c-di-GMP; Kd [9]: ~500 nM and 500 nM; Kd [10]: 350 nM; Kd [11]: 13.5 nM
